Measured values from PubChem BioAssay AID248 (DTP/NCI, 2004).
Several values for one entry are separate records, joined by “and”; a condition that tells them apart may be missing. Identical values can stand only once. Toxic doses and inconclusive results are not listed.

Tested on: L1210 leukemia ip in BDF1 mice, survival T/C
Experiment: NCI In Vivo Anticancer Drug Screen. Data for tumor model L1210 Leukemia (intraperitoneal) in B6D2F1 (BDF1) mice
Conditions: higher = longer survival
In short: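 Transplanted-tumor mice were given test agent; controls received vehicle only. Survival readings from the two groups were divided (treated over control).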

[1] = endpoint: mean survival time, dose: 50.0 mg/kg/injection, schedule: Q01DX001 (ip), vehicle: carboxymethylcellulose (CMC)
[2] = endpoint: mean survival time, dose: 100.0 mg/kg/injection, schedule: Q01DX001 (ip), vehicle: carboxymethylcellulose (CMC)
[3] = endpoint: mean survival time, dose: 100.0 mg/kg/injection, schedule: Q01DX001 (ip), vehicle: saline
[4] = endpoint: mean survival time, dose: 200.0 mg/kg/injection, schedule: Q01DX001 (ip), vehicle: saline
[5] = endpoint: mean survival time, dose: 400.0 mg/kg/injection, schedule: Q01DX001 (ip), vehicle: saline
[6] = endpoint: mean survival time, dose: 100.0 mg/kg/injection, schedule: Q04DX003 (ip), vehicle: saline with Tween-80
[7] = endpoint: mean survival time, dose: 200.0 mg/kg/injection, schedule: Q04DX003 (ip), vehicle: saline with Tween-80
[8] = endpoint: mean survival time, dose: 400.0 mg/kg/injection, schedule: Q04DX003 (ip), vehicle: saline with Tween-80
[9] = endpoint: mean survival time, dose: 100.0 mg/kg/injection, schedule: Q04DX003 (ip), vehicle: saline
[10] = endpoint: mean survival time, dose: 200.0 mg/kg/injection, schedule: Q01DX001 (ip), vehicle: carboxymethylcellulose (CMC)
[11] = endpoint: mean survival time, dose: 400.0 mg/kg/injection, schedule: Q01DX001 (ip), vehicle: carboxymethylcellulose (CMC)
[12] = endpoint: mean survival time, dose: 100.0 mg/kg/injection, schedule: Q01DX001 (ip), vehicle: Klucel (hydroxypropylcellulose) (HPC)
[13] = endpoint: mean survival time, dose: 200.0 mg/kg/injection, schedule: Q01DX001 (ip), vehicle: Klucel (hydroxypropylcellulose) (HPC)
[14] = endpoint: mean survival time, dose: 400.0 mg/kg/injection, schedule: Q01DX001 (ip), vehicle: Klucel (hydroxypropylcellulose) (HPC)

Structure (SMILES): O=NN(C(=O)Nc1ccccc1)c1ccccc1
- T/C (endpoint: mean survival time, dose: 2.0 mg/kg/injection, schedule: Q01DX001 (ip), vehicle: carboxymethylcellulose (CMC)): 106 % of control
- T/C (endpoint: mean survival time, dose: 4.0 mg/kg/injection, schedule: Q01DX001 (ip), vehicle: carboxymethylcellulose (CMC)): 112 % of control
- T/C (endpoint: mean survival time, dose: 6.0 mg/kg/injection, schedule: Q01DX001 (ip), vehicle: carboxymethylcellulose (CMC)): 112 % of control
- T/C (endpoint: mean survival time, dose: 8.0 mg/kg/injection, schedule: Q01DX001 (ip), vehicle: carboxymethylcellulose (CMC)): 110 % of control
- T/C (endpoint: mean survival time, dose: 10.0 mg/kg/injection, schedule: Q01DX001 (ip), vehicle: carboxymethylcellulose (CMC)): 104 % of control
- T/C (endpoint: mean survival time, dose: 12.5 mg/kg/injection, schedule: Q01DX001 (ip), vehicle: carboxymethylcellulose (CMC)): 108 % of control
- T/C (endpoint: mean survival time, dose: 25.0 mg/kg/injection, schedule: Q01DX001 (ip), vehicle: carboxymethylcellulose (CMC)): 100 % of control
- T/C [1]: 102 % of control
- T/C [2]: 108 % of control

Structure (SMILES): N/N=C\c1cnnc2ccccc12
- T/C [3]: 95 % of control
- T/C [4]: 95 % of control
- T/C [5]: 98 % of control

Structure (SMILES): COc1ccc2nc3cc(Cl)ccc3c(Nc3ccc(O)c(CN(CCCl)CCCl)c3)c2c1
- T/C (endpoint: mean survival time, dose: 0.3 mg/kg/injection, schedule: Q01DX Z (ip), vehicle: saline): 118 % of control
- T/C (endpoint: mean survival time, dose: 4.8 mg/kg/injection, schedule: Q01DX Z (ip), vehicle: saline): 94 % of control
- T/C (endpoint: mean survival time, dose: 5.0 mg/kg/injection, schedule: Q01DX001 (ip), vehicle: saline): 111 % of control
- T/C (endpoint: mean survival time, dose: 7.5 mg/kg/injection, schedule: Q04DX003 (ip), vehicle: saline): 120 % of control
- T/C (endpoint: mean survival time, dose: 10.0 mg/kg/injection, schedule: Q01DX001 (ip), vehicle: saline): 108 % of control
- T/C (endpoint: mean survival time, dose: 20.0 mg/kg/injection, schedule: Q01DX001 (ip), vehicle: saline): 104 % of control
- T/C [3]: 87 % of control

Structure (SMILES): COc1ccc2c(c1OC)-c1c3c(cc4c1C(C2)N(C)CC4)OCO3 (configuration not stated)
- T/C [3]: 98 % of control
- T/C [4]: 101 % of control
- T/C [5]: 96 % of control

Structure (SMILES): CCOC(=O)c1c[nH]c2oc(/C=N/N3CC(CN4CCOCC4)OC3=O)cc2c1=O (configuration not stated)
- T/C (endpoint: median survival time, dose: 25.0 mg/kg/injection, schedule: Q01DX009 (ip), vehicle: acid diluted with saline): 110 % of control
- T/C (endpoint: median survival time, dose: 50.0 mg/kg/injection, schedule: Q01DX009 (ip), vehicle: acid diluted with saline): 111 % of control
- T/C (endpoint: median survival time, dose: 200.0 mg/kg/injection, schedule: Q01DX009 (ip), vehicle: acid diluted with saline): 152 % of control

Structure (SMILES): Cn1cnccc1=O
- T/C (endpoint: mean survival time, dose: 50.0 mg/kg/injection, schedule: Q01DX009 (ip), vehicle: water): 102 % of control
- T/C (endpoint: mean survival time, dose: 100.0 mg/kg/injection, schedule: Q01DX009 (ip), vehicle: water): 104 % of control
- T/C (endpoint: mean survival time, dose: 100.0 mg/kg/injection, schedule: Q04DX003 (ip), vehicle: water): 114 % of control
- T/C (endpoint: mean survival time, dose: 120.0 mg/kg/injection, schedule: Q04DX003 (ip), vehicle: water): 98 % of control
- T/C (endpoint: mean survival time, dose: 200.0 mg/kg/injection, schedule: Q01DX009 (ip), vehicle: water): 115 % of control
- T/C (endpoint: mean survival time, dose: 200.0 mg/kg/injection, schedule: Q04DX003 (ip), vehicle: water): 100 % of control and 111 % of control
- T/C (endpoint: mean survival time, dose: 333.0 mg/kg/injection, schedule: Q04DX003 (ip), vehicle: water): 95 % of control
- T/C (endpoint: mean survival time, dose: 400.0 mg/kg/injection, schedule: Q01DX009 (ip), vehicle: water): 115 % of control
- T/C (endpoint: mean survival time, dose: 400.0 mg/kg/injection, schedule: Q04DX003 (ip), vehicle: water): 106 % of control

Structure (SMILES): Cc1ccc(N(O)C(=O)Nc2ccccc2)cc1
- T/C (endpoint: mean survival time, dose: 50.0 mg/kg/injection, schedule: Q01DX015 (ip), vehicle: methylcellulose (MC)): 102 % of control
- T/C (endpoint: mean survival time, dose: 100.0 mg/kg/injection, schedule: Q01DX015 (ip), vehicle: methylcellulose (MC)): 91 % of control
- T/C (endpoint: mean survival time, dose: 200.0 mg/kg/injection, schedule: Q01DX015 (ip), vehicle: methylcellulose (MC)): 96 % of control

Structure (SMILES): Cc1c(C#N)c2nc(C(=O)c3ccc(Br)cc3)cc(-c3ccc(Br)cc3)n2c1C
- T/C (endpoint: mean survival time, dose: 50.0 mg/kg/injection, schedule: Q04DX003 (ip), vehicle: saline with Tween-80): 98 % of control
- T/C [6]: 111 % of control
- T/C [7]: 103 % of control
- T/C [8]: 106 % of control

Structure (SMILES): Cc1cc(Cl)ccc1OC(=O)Nc1cccc(Cl)c1Cl
- T/C (endpoint: mean survival time, dose: 100.0 mg/kg/injection, schedule: Q01DX009 (ip), vehicle: Klucel (hydroxypropylcellulose) (HPC)): 102 % of control
- T/C (endpoint: mean survival time, dose: 200.0 mg/kg/injection, schedule: Q01DX009 (ip), vehicle: Klucel (hydroxypropylcellulose) (HPC)): 89 % of control
- T/C (endpoint: mean survival time, dose: 400.0 mg/kg/injection, schedule: Q01DX009 (ip), vehicle: Klucel (hydroxypropylcellulose) (HPC)): 94 % of control

Structure (SMILES): CCOC(=O)/C=C/C(=O)O
- T/C [1]: 111 % of control
- T/C (endpoint: mean survival time, dose: 75.0 mg/kg/injection, schedule: Q01DX001 (ip), vehicle: carboxymethylcellulose (CMC)): 86 % of control
- T/C [2]: 105 % of control
- T/C [9]: 95 % of control and 109 % of control
- T/C [10]: 114 % of control
- T/C (endpoint: mean survival time, dose: 200.0 mg/kg/injection, schedule: Q04DX003 (ip), vehicle: saline): 103 % of control and 109 % of control
- T/C [11]: 101 % of control
- T/C (endpoint: mean survival time, dose: 400.0 mg/kg/injection, schedule: Q04DX003 (ip), vehicle: saline): 95 % of control and 97 % of control

Structure (SMILES): c1ccc2nc3c(cc2c1)NCC3
- T/C [12]: 95 % of control
- T/C [13]: 97 % of control
- T/C [14]: 109 % of control

Structure (SMILES): O=C1C2C3C=CC(C3)C2C(=O)C2C3C=CC(C3)C12 (configuration not stated)
- T/C [1]: 103 % of control
- T/C [2]: 93 % of control
- T/C [10]: 100 % of control
- T/C [11]: 112 % of control

Structure (SMILES): CCN(CC)S(=O)(=O)/C=C\c1ccccc1
- T/C (endpoint: mean survival time, dose: 50.0 mg/kg/injection, schedule: Q04DX003 (ip), vehicle: Klucel (hydroxypropylcellulose) (HPC)): 96 % of control
- T/C [12]: 98 % of control
- T/C (endpoint: mean survival time, dose: 100.0 mg/kg/injection, schedule: Q04DX003 (ip), vehicle: Klucel (hydroxypropylcellulose) (HPC)): 107 % of control
- T/C [13]: 107 % of control
- T/C (endpoint: mean survival time, dose: 200.0 mg/kg/injection, schedule: Q04DX003 (ip), vehicle: Klucel (hydroxypropylcellulose) (HPC)): 102 % of control
- T/C [14]: 102 % of control
- T/C (endpoint: mean survival time, dose: 400.0 mg/kg/injection, schedule: Q04DX003 (ip), vehicle: Klucel (hydroxypropylcellulose) (HPC)): 104 % of control

Structure (SMILES): Cc1cc(/C=C/c2ccccc2)nc2ccccc12
- T/C [3]: 96 % of control
- T/C [4]: 100 % of control
- T/C [5]: 90 % of control

Structure (SMILES): O=C(Nc1cccc(C2=NCCN2)c1)c1ccc(OCCCOc2ccc(C(=O)Nc3cccc(C4=NCCN4)c3)cc2)cc1
- T/C (endpoint: mean survival time, dose: 9.0 mg/kg/injection, schedule: Q01DX Z (ip), vehicle: saline): 113 % of control
- T/C (endpoint: mean survival time, dose: 12.0 mg/kg/injection, schedule: Q01DX Z (ip), vehicle: water): 107 % of control
- T/C (endpoint: mean survival time, dose: 13.0 mg/kg/injection, schedule: Q01DX Z (ip), vehicle: saline): 107 % of control
- T/C (endpoint: mean survival time, dose: 20.0 mg/kg/injection, schedule: Q01DX Z (ip), vehicle: saline): 112 % of control
- T/C (endpoint: mean survival time, dose: 25.0 mg/kg/injection, schedule: Q01DX Z (ip), vehicle: water): 111 % of control

Structure (SMILES): CCCCOP(=O)(/C=C/c1ccc([N+](=O)[O-])cc1)OCCCC
- T/C (endpoint: mean survival time, dose: 100.0 mg/kg/injection, schedule: Q04DX002 (ip), vehicle: Klucel (hydroxypropylcellulose) (HPC)): 97 % of control
- T/C (endpoint: mean survival time, dose: 200.0 mg/kg/injection, schedule: Q04DX002 (ip), vehicle: Klucel (hydroxypropylcellulose) (HPC)): 93 % of control
- T/C (endpoint: mean survival time, dose: 400.0 mg/kg/injection, schedule: Q04DX002 (ip), vehicle: Klucel (hydroxypropylcellulose) (HPC)): 108 % of control

Structure (SMILES): Cn1cc[nH]c1=S
- T/C (endpoint: mean survival time, dose: 25.0 mg/kg/injection, schedule: Q04DX003 (ip), vehicle: saline): 114 % of control
- T/C (endpoint: mean survival time, dose: 50.0 mg/kg/injection, schedule: Q04DX003 (ip), vehicle: saline): 90 % of control
- T/C [3]: 110 % of control
- T/C [9]: 98 % of control
- T/C [4]: 107 % of control
- T/C [5]: 105 % of control

Structure (SMILES): COc1ccc(Nc2nc(N)nc(CNc3ccc(C)cc3)n2)cc1
- T/C [6]: 94 % of control
- T/C [7]: 92 % of control
- T/C [8]: 96 % of control

Structure (SMILES): Nc1cccc(CC(=O)Nc2ccccc2)c1
- T/C (endpoint: mean survival time, dose: 100.0 mg/kg/injection, schedule: Q01DX009 (ip), vehicle: alcohol): 93 % of control
- T/C (endpoint: mean survival time, dose: 100.0 mg/kg/injection, schedule: Q04DX003 (ip), vehicle: alcohol): 97 % of control
- T/C (endpoint: mean survival time, dose: 200.0 mg/kg/injection, schedule: Q01DX009 (ip), vehicle: alcohol): 105 % of control
- T/C (endpoint: mean survival time, dose: 200.0 mg/kg/injection, schedule: Q04DX003 (ip), vehicle: alcohol): 100 % of control
- T/C (endpoint: mean survival time, dose: 400.0 mg/kg/injection, schedule: Q01DX009 (ip), vehicle: alcohol): 103 % of control
- T/C (endpoint: mean survival time, dose: 400.0 mg/kg/injection, schedule: Q04DX003 (ip), vehicle: alcohol): 100 % of control
